Like-named read-outs stand apart in the source and are kept apart here.
Target: T1, interleukin-1β converting enzyme (ICE) (Homo sapiens, UniProt P29466)
T1 sequence (P29466 120-297 limits assumed): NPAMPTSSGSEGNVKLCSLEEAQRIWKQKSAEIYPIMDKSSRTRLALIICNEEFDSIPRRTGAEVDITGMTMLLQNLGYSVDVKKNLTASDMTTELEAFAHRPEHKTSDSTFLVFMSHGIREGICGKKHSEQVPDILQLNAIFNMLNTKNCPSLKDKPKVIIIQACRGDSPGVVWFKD
T1 sequence (P29466 317-404 limits assumed): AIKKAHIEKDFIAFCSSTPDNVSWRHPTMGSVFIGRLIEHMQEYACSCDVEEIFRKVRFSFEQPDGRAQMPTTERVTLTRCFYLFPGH
Assay: Fluorometric assay of inhibition of ICE hydrolysis of peptide substrate Ac-Tyr-Val-Ala-Asp-AMC
Type: biochemical
Settings: for Ki: reversible inhibition; for kon: irreversible inhibition
Description: Inhibition of Interleukin-1β Converting Enzyme (ICE).
A fluorometric assay used to evaluate the inhibition of interleukin-1βconverting enzyme (ICE) hydrolysis of a peptide substrate (Ac-Tyr-Val-Ala-Asp-AMC) by the compounds described in Examples 1-15 has been described in detail (N. A. Thornberry et al., Nature 1992, 356, 768-774). Briefly, liberation of AMC (aminomethylcoumarin) from the substrate was monitored continuously in a spectrofluorometer using an excitation wavelength of 380 nm and an emission wavelength of 460 nm. Details for determining kinetic constants for reversible and irreversible inhibition are described (N. A. Thomberry et al., Biochemistry 1994, 33, 3934-3940).
Inhibition of Interleukin-1β Converting Enzyme (ICE) by Examples 1-14

SMILES | Ki | kon | kon (read-out: kon)
C=CCOC(=O)NC(CC(=O)O)C(=O)COc1cc2ccccc2cc1C(N)=O (centres unmarked) [Example 4, N-Allyloxycarbonyl-3-amino-5-(3-aminocarbonyl-2-naphthyloxy)-4-oxopentanoic acid] | 300 nM |  | 
CC(=O)N[C@@H](Cc1ccc(O)cc1)C(=O)N[C@H](C(=O)N[C@@H](C)C(=O)NC(CC(=O)O)C(=O)COc1ccccc1)C(C)C (some centres unmarked) [Example 11, N-(N-Acetyl-(L)-tyrosinyl-(L)-valinyl-(L)-alaninyl)-3-amino-5-phenoxy-4-oxopentanoic acid] | 3 nM |  | 
C=CCOC(=O)NC(CC(=O)O)C(=O)COc1ccc2ccccc2c1 (centres unmarked) [Example 3, N-Allyloxycarbonyl-3-amino-5-(2-naphthyloxy)-4-oxopentanoic acid] | 5000 nM |  | 
C=CCOC(=O)NC(CC(=O)O)C(=O)COc1cc2ccccc2cc1C(=O)Nc1ccccc1 (centres unmarked) [Example 5, N-Allyloxycarbonyl-3-amino-5-(3-(N-phenyl)aminocarbonyl-2-naphthyloxy)-4-oxopentanoic acid] | 500 nM |  | 
C=CCOC(=O)NC(CC(=O)O)C(=O)COc1cc2ccccc2cc1C(=O)OC (centres unmarked) [Example 8, N-Allyloxycarbonyl-3-amino-5-(3-methoxycarbonyl-2-naphthyloxy)-4-oxopentanoic acid] | 2600 nM |  | 
CC(C)[C@H](NC(=O)OCc1ccccc1)C(=O)N[C@@H](C)C(=O)NC(CC(=O)O)C(=O)COc1cc2ccccc2cc1C(N)=O.CCN(CC)CC (some centres unmarked) [Example 12, N-(N-Carbobenzyloxy-(L)-valinyl-(L)-alaninyl)-3-amino-5-(3-amino-carbonyl-naphthyl-2-oxy)-4-oxo-pentanoic acid, triethylamine salt] |  | 430,000 M^-1 s^-1 | 
C=CCOC(=O)NC(CC(=O)O)C(=O)COc1ccccc1 (centres unmarked) [Example 1, N-Allyloxycarbonyl-3-amino-4-oxo-5-phenoxy-pentanoic acid] | 3500 nM |  | 
C=CCOC(=O)NC(CC(=O)O)C(=O)COc1cc2ccccc2cc1-n1ccnc1 (centres unmarked) [Example 10, N-Allyloxycarbonyl-3-amino-5-(3-imidazolyl-2-naphthyloxy)-4-oxopentanoicacid] | 90 nM | 12,000 M^-1 s^-1 | 
NC(=O)c1cc2ccccc2cc1OCC(=O)C(CC(=O)O)NC(=O)c1cc2ccccc2[nH]1 (centres unmarked) [Example 14, N-(2-indoloyl)-3-amino-5-(3-aminocarbonyl-naphthyl-2-oxy)-4-oxo-pentanoic acid] |  | 390 M⁻¹ s⁻¹ | 
C=CCOC(=O)NC(CC(=O)O)C(=O)COc1cc2ccccc2cc1CO (centres unmarked) [Example 7, N-Allyloxycarbonyl-3-amino-5-(3-hydroxymethyl-2-naphthyloxy)-4-oxopentanoic acid] | 1200 nM |  | 
C=CCOC(=O)NC(CC(=O)O)C(=O)COc1cc2ccccc2cc1C#N (centres unmarked) [Example 6, N-Allyloxycarbonyl-3-amino-5-(3-cyano-2-naphthyloxy)-4-oxopentanoic acid] | 620 nM |  | 4500 M⁻¹ s⁻¹
C=CCOC(=O)NC(CC(=O)O)C(=O)COc1cccc2ccccc12 (centres unmarked) [Example 2, N-Allyloxycarbonyl-3-amino-5-(1-naphthyloxy)-4-oxopentanoic acid] | 9500 nM |  | 
CC(C)[C@H](NC(=O)OCc1ccccc1)C(=O)N1CCC[C@H]1C(=O)NC(CC(=O)O)C(=O)COc1cc2ccccc2cc1C(N)=O (some centres unmarked) [Example 13, N-(N-Carbobenzyloxy-(L)-valinyl-(L)-prolinyl)-3-amino-5-(3-amino-carbonyl-naphthyl-2-oxy)-4-oxo-petanoic acid] |  | 340,000 M^-1 s^-1 | 
C=CCOC(=O)NC(CC(=O)O)C(=O)COc1cc2ccccc2cc1C(=O)NCCO (centres unmarked) [Example 9, N-Allyloxycarbonyl-3-amino-5-(3-(2-hydroxyethyl-1-aminocarbonyl)-2-naphthyloxy)-4-oxopentanoic acid] | 520 nM | 1000 M⁻¹ s⁻¹ | 

— patent US5866545A, “Substituted ketone derivatives as inhibitors of interleukin-1β converting enzyme” (Merck & Co., Inc., priority 1996, dated 1999)
